The values that follow come from ChEMBL document CHEMBL1201862, “PubChem BioAssay data set” (2004).

Test systems include 786-0; BT-549; DU-145; EKVX; HCT-15; HL-60; HOP-62; HOP-92; IGROV-1; K562; KM12; MDA-MB-435; NCI-H226; NCI-H23; NCI-H522; RXF 393; SW-620; T47D; U-251; UACC-257.
Assay in all cases: NCI anticancer screen, dose series, 48 h

Structures are written as SMILES.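 Five concentrations, 48 hours, 96-well plates. GI50 marks 50% less growth.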 The source made the active and inactive calls. No stated cut-off is given here; in the data, active = GI50 up to about 1.1 µM and inactive = higher.

Take `COC1/C=C\OC2(C)Oc3c(C)c(O)c4c(O)c(c(CN(C)C)c(O)c4c3C2=O)NC(=O)/C(C)=C\C=C/C(C)C(O)C(C)C(O)C(C)C(OC(C)=O)C1C` (stereo not given): the GI50 is 27.4 µM (inactive) in the assay with 786-0; 31.2 µM (inactive) with BT-549; 32.3 µM (inactive) in the assay with DU-145; 12.5 µM (inactive) in the assay with EKVX; 44.2 µM with HCT-15; 18.5 µM (inactive) with HL-60. Moreover, the GI50 in the assay with HOP-62 is 55.1 µM (inactive); in the assay with HOP-92 it was 45 µM (inactive); in the assay on IGROV-1, 33.7 µM (inactive); in the assay on K562 it was 22.6 µM (inactive); in the assay with KM12, 33.7 µM (inactive); in the assay on MDA-MB-435, 26.4 µM (inactive). Besides, the GI50 in the assay on NCI-H226 was > 100 µM (inactive); in the assay on NCI-H23, 16 µM (inactive); with NCI-H522 it was 16.2 µM (inactive); with RXF 393, 37.8 µM (inactive); with SW-620, 12.2 µM (inactive); in the assay with T47D, 29 µM (inactive). In addition, the GI50 was 19.7 µM (inactive) with U-251 and 22.4 µM (inactive) with UACC-257.
As for `NC(=O)NC(=O)c1cccc(NC(=O)CI)c1`, the GI50 in the assay with 786-0 was < 0.01 µM (active); with BT-549 it was 0.0473 µM (active); with DU-145, 0.0344 µM (active); in the assay with EKVX, 0.863 µM (active); in the assay on HCT-15, below 0.0159 µM; with HL-60, < 0.01 µM (active). The GI50 with HOP-62 was 0.103 µM (active); with HOP-92, < 0.01 µM (active); in the assay with IGROV-1, 0.0483 µM (active); in the assay on K562 it was < 0.01 µM (active); in the assay on KM12, 0.0391 µM (active); in the assay with MDA-MB-435 it was < 0.01 µM (active). Moreover, the GI50 in the assay on NCI-H226 was < 0.0367 µM (active); with NCI-H23, < 0.0212 µM (active); in the assay on NCI-H522, < 0.01 µM (active); in the assay on RXF 393, 0.0513 µM (active); in the assay with SW-620, < 0.01 µM (active); in the assay with T47D, 1.66 µM (inactive). In addition, the GI50 with U-251 is 0.0291 µM (active); with UACC-257, < 0.0252 µM (active).
`O=CCCCCCOCc1ccccc1`: the GI50 is 23.8 µM (inactive) in the assay with 786-0; > 100 µM (inactive) with BT-549; 71.9 µM (inactive) in the assay on DU-145; > 100 µM (inactive) with EKVX; 37.4 µM with HCT-15; 11.6 µM (inactive) in the assay on HL-60. For the same compound, the GI50 with HOP-62 is 29.4 µM (inactive); in the assay with HOP-92 it was > 100 µM (inactive); with IGROV-1, 40.7 µM (inactive); in the assay on K562 it was 9.98 µM (inactive); with KM12 it was 54.3 µM (inactive); in the assay with MDA-MB-435 it was > 100 µM (inactive). Moreover, the GI50 in the assay with NCI-H226 was > 73.6 µM (inactive); in the assay on NCI-H23, 50.7 µM (inactive); in the assay on NCI-H522, 20.7 µM (inactive); in the assay with RXF 393, > 100 µM (inactive); in the assay with SW-620 it was 60.1 µM (inactive); in the assay with T47D, > 100 µM (inactive). Also, the values for the GI50 with U-251 and in the assay on UACC-257 were 69.5 µM (inactive) and > 60.8 µM (inactive), respectively.
For `COc1ccc(-c2cc(=O)c3c(O)cc(C)cc3o2)cc1OC`, the GI50 with 786-0 is > 100 µM (inactive); in the assay with BT-549, > 100 µM (inactive); with DU-145, > 100 µM (inactive); with EKVX it was > 100 µM (inactive); in the assay on HCT-15 it was above 100 µM; in the assay on HL-60, > 100 µM (inactive). Further, the GI50 in the assay on HOP-62 is > 100 µM (inactive); in the assay on HOP-92, 22.8 µM (inactive); in the assay on IGROV-1, > 100 µM (inactive); in the assay on K562, > 100 µM (inactive); in the assay on KM12, > 100 µM (inactive); in the assay with MDA-MB-435, > 100 µM (inactive). Further, the GI50 in the assay with NCI-H226, with NCI-H23, in the assay on NCI-H522, in the assay on RXF 393, with SW-620 and with T47D was > 100 µM (inactive) each time. Further, the GI50 in the assay on U-251 and with UACC-257 was > 100 µM (inactive) throughout.
`CC1=CC(=O)/C(=C/n2c(=S)[nH]c3ccccc32)C(=O)O1`: the GI50 in the assay with 786-0 was > 100 µM (inactive); in the assay with BT-549, > 100 µM (inactive); in the assay with DU-145, > 100 µM (inactive); in the assay with EKVX it was 76.4 µM (inactive); in the assay with HCT-15, above 100 µM; in the assay on HL-60 it was < 0.01 µM (active). The GI50 in the assay with HOP-62, in the assay on HOP-92, in the assay with IGROV-1, in the assay on K562, in the assay with KM12 and with MDA-MB-435 was > 100 µM (inactive) throughout. In addition, the GI50 with NCI-H226 is > 100 µM (inactive); in the assay with NCI-H23, > 100 µM (inactive); in the assay on NCI-H522, > 100 µM (inactive); in the assay with RXF 393 it was 51.5 µM (inactive); in the assay with SW-620, > 100 µM (inactive); with T47D it was > 100 µM (inactive). Besides, the GI50 in the assay on U-251 and in the assay with UACC-257 was > 100 µM (inactive) in each case.
With `CC1OC(OC2C(O[C@H]3CC[C@@]4(C)C(=CC[C@H]5[C@@H]6C[C@@H]7O[C@]8(CC[C@@H](C)CO8)[C@@H](C)[C@@H]7[C@@]6(C)CC[C@@H]54)C3)OC(CO)C(O)C2OC2OC(CO)C(O)C(O)C2O)C(O)C(O)C1O` (stereo not given in full), the GI50 in the assay with 786-0 was 1.77 µM (inactive); with BT-549 it was 2.07 µM (inactive); in the assay on DU-145 it was 2.08 µM (inactive); with EKVX, 12.4 µM (inactive); with HCT-15, 1.95 µM; in the assay on HL-60, 3.35 µM (inactive). Besides, the GI50 in the assay on HOP-62 is 2.22 µM (inactive); in the assay with HOP-92, 1.79 µM (inactive); with IGROV-1 it was 1.76 µM (inactive); in the assay on K562, 14.4 µM (inactive); with KM12 it was 2.21 µM (inactive); in the assay on MDA-MB-435 it was 1.81 µM (inactive). Further, the GI50 in the assay on NCI-H226 is 2 µM (inactive); in the assay on NCI-H23 it was 1.89 µM (inactive); in the assay with NCI-H522, 1.86 µM (inactive); in the assay on RXF 393 it was 2.17 µM (inactive); in the assay with SW-620, 0.205 µM (active); in the assay on T47D, 2.31 µM (inactive). The GI50 is 1.89 µM (inactive) in the assay on U-251 and 1.86 µM (inactive) with UACC-257.
On to `C/C(=C/CC[C@](C)(OC1OC(CO)C(O)C(O)C1OC1OC(C)C(O)C(O)C1O)[C@H]1CC[C@]2(C)[C@@H]1CC[C@@H]1[C@@]3(C)CC[C@H](O)C(C)(C)[C@@H]3C[C@H](O)[C@]12C)CO` (stereo not given in full), for which the GI50 with 786-0 is > 100 µM (inactive); with BT-549, > 100 µM (inactive); in the assay with DU-145, > 100 µM (inactive); with EKVX it was > 100 µM (inactive); with HCT-15, above 10 µM; in the assay with HL-60 it was > 100 µM (inactive). In addition, the GI50 in the assay on HOP-62, in the assay with HOP-92, in the assay with IGROV-1, in the assay with K562, in the assay with KM12 and with MDA-MB-435 was > 100 µM (inactive) in each case. Moreover, the GI50 with NCI-H226, in the assay with NCI-H23, in the assay on NCI-H522, with RXF 393, with SW-620 and with T47D was > 100 µM (inactive) each time. The GI50 in the assay with U-251 and in the assay with UACC-257 was > 100 µM (inactive) in each case.
Regarding `N#CC(C#N)=Cc1c(O)ccc2ccccc12`, the GI50 in the assay on 786-0 is 13.3 µM (inactive); with BT-549, 16.7 µM (inactive); in the assay with DU-145, 14.2 µM (inactive); in the assay with EKVX, 12 µM (inactive); in the assay on HCT-15, 14.1 µM; in the assay with HL-60, 2.99 µM (inactive). Further, the GI50 in the assay with HOP-62 was 20.6 µM (inactive); with HOP-92 it was 0.422 µM (active); in the assay with IGROV-1, 17.8 µM (inactive); in the assay with K562 it was 4.05 µM (inactive); in the assay on KM12, 17.8 µM (inactive); in the assay on MDA-MB-435, 14.4 µM (inactive). The GI50 with NCI-H226 is 21.3 µM (inactive); in the assay on NCI-H23, 12.2 µM (inactive); with NCI-H522 it was 9.93 µM (inactive); with RXF 393 it was 15.2 µM (inactive); in the assay with SW-620, 11.9 µM (inactive); in the assay with T47D, 13.3 µM (inactive). For the same compound, the figures for the GI50 in the assay with U-251 and in the assay on UACC-257 were 15.9 µM (inactive) and 16.8 µM (inactive), respectively.
As to `COc1cccc2c1C(=O)c1c(O)c3c(c(O)c1C2=O)CC(O)(C(O)CO)CC3OC1CC2C(OC3COCC(C#N)N32)C(C)O1` (stereo not given), the GI50 is < 0.01 µM (active) with 786-0; < 0.01 µM (active) with BT-549; < 0.01 µM (active) in the assay on DU-145; < 0.01 µM (active) in the assay on EKVX; below 0.01 µM in the assay on HCT-15; < 0.01 µM (active) with HL-60. Further, the GI50 with HOP-62, in the assay with HOP-92, in the assay on IGROV-1, in the assay with K562, in the assay with KM12 and with MDA-MB-435 was < 0.01 µM (active) each time. For the same compound, the GI50 in the assay on NCI-H226, in the assay on NCI-H23, in the assay with NCI-H522, in the assay on RXF 393, with SW-620 and in the assay on T47D was < 0.01 µM (active) in each case. Besides, the GI50 in the assay on U-251 and in the assay with UACC-257 was < 0.01 µM (active) throughout.
On to `NCCO/C=C/C(N)C(=O)O` (stereo not given) [AMINOETHOXYVINYLGLYCINE], for which the GI50 with 786-0 was > 100 µM (inactive); in the assay with BT-549 it was > 100 µM (inactive); in the assay on DU-145, > 100 µM (inactive); with EKVX, > 100 µM (inactive); in the assay with HCT-15, above 100 µM; in the assay on HL-60, > 100 µM (inactive). The GI50 in the assay on HOP-62, in the assay on HOP-92, with IGROV-1, with K562, in the assay with KM12 and in the assay on MDA-MB-435 was > 100 µM (inactive) in each case. Besides, the GI50 in the assay with NCI-H226 was > 100 µM (inactive); in the assay with NCI-H23 it was > 100 µM (inactive); in the assay with NCI-H522, 10.1 µM (inactive); with RXF 393 it was > 100 µM (inactive); with SW-620, > 100 µM (inactive); with T47D, > 100 µM (inactive). The GI50 with U-251 and with UACC-257 was > 100 µM (inactive) throughout.
